Earlier results, collected in US5635503A, “Dihydropyridine npy antagonists: piperazine derivatives” (Bristol-Myers Squibb Company, priority 1995, dated 1997).

Tests used:
Y2 receptor = target: T1, Y2 receptor (Rattus norvegicus, UniProt Q9ERC0); conditions: functional selectivity for the Y2 receptor
T1 sequence (Q9ERC0 1-381): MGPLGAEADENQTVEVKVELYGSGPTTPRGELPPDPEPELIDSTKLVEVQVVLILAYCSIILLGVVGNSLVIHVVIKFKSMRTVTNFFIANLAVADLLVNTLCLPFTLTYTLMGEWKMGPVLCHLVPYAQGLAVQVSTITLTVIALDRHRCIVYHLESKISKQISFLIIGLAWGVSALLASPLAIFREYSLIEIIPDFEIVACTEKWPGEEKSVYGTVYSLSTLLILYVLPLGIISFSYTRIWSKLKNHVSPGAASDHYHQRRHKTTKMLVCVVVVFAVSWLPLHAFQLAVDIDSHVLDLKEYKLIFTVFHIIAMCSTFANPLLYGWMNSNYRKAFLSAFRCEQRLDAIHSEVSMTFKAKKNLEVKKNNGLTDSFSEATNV

[1] = system: vasoconstrictive activity of the NPY1 agonist [Leu31, Pro34]NPY
[2] = system: NPY-related increases in diastolic blood pressure; conditions: anesthetized guinea pig model

effect on the NPY2 agonist NPY13-36 (Y2 receptor) | SMILES | functional antagonism (rat femoral artery) | effect on vasoconstrictive activity of the NPY1 agonist [Leu31, Pro34]NPY [1] | antagonism of NPY-related increases in diastolic blood pressure [2]
antagonized the effect | N=C(N)N(CCCCCCNCc1ccc2ccccc2c1)CCCCCCN(CCCCCCNCc1ccc2ccccc2c1)C(=N)N [Example 6b] | display functional antagonism | had no effect | 
 | CN(C)CC1CCC(CNC(=N)c2ccc(CC(NC(=O)C(Cc3ccccc3)NS(=O)(=O)c3ccc4ccccc4c3)C(=O)N3CCCC3)cc2)CC1 (stereo not shown) [SR 120819A] |  |  | antagonized
